Measurements reported in BindingDB's records for patent US20250248973 (Corbus Pharmaceuticals, 2025).

Molecular target: Isoform 3 of Cannabinoid receptor 1 (Human, UniProt P21554)
Test: Biochemical Assay
Procedure: hCB1/hCB1 b Gai Cyclic AMP (cAMP) Assays: Cells were seeded in a 384-well plate at an appropriate density from frozen cells. The cAMP assays were performed according to the manufacturer's protocol using MULTISCREEN™ TR-FRET cAMP 1.0 No Wash Assay Kit. Cells (hCB1 or hCB1 b) were pre-incubated with customer compounds for 30 minutes at rt followed by addition of EC80 CP55940 concentration and Forskolin. Cells were then incubated for 20 minutes at 37C. The reaction was terminated by sequentially adding sequentially adding MULTISCREEN™ Eu-labeled cAMP and MULTISCREEN™ 650-labeled anti-cAMP antibody in lysis buffer. The plate was then incubated at rt for 30 minutes before reading fluorescent emissions at 620 nm and 665 with excitation at 314 nm on FlexStation III (Molecular Devices).

Sequence of Isoform 3 of Cannabinoid receptor 1 (P21554 as listed by the source): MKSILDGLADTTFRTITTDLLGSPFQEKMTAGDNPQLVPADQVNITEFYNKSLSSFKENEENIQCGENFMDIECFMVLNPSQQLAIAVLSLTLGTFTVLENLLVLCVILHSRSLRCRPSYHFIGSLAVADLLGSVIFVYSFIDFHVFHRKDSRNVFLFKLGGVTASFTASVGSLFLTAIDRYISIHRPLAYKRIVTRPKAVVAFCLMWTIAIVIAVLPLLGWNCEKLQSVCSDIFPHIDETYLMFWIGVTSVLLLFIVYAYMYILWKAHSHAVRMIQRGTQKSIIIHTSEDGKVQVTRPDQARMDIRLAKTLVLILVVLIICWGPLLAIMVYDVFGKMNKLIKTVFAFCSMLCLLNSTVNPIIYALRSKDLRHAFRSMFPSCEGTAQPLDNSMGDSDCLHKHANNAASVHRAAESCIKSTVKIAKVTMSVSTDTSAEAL

IC50: < 100 nM
Structure (SMILES): C#Cc1cccc(S(=O)(=O)N=C(NCCS(N)(=O)=O)N2C[C@H](c3ccccc3)C(c3ccc(Cl)cc3)=N2)c1 [US20250248973, Compound 35]
